Entries after “also recorded” stand apart in the source; their conditions may differ. Read-outs that look alike come from different tables or passages of the source.
Experiments:
[1] = target: SARS-CoV-2 RdRp nsp12/7/8 complex (Severe acute respiratory syndrome coronavirus 2, UniProt P0DTD1); test: biochemical; format: biochemical; conditions: for IC50: RdRp IC50 [µM]; for inhibition at 20 µM: read-out: RdRp Inhibition [%] 20 µM (PS Inhibition RdRp [%])
SARS-CoV-2 helicase = SARS-CoV-2 helicase (Severe acute respiratory syndrome coronavirus 2, UniProt P0DTD1); format: binding
RdRp complex = RdRp complex (Severe acute respiratory syndrome coronavirus 2, UniProt P0DTD1); format: binding, SARS-CoV-2
[2] = target: SARS-CoV-2 nsp13 NTPase activity (Severe acute respiratory syndrome coronavirus 2, UniProt P0DTD1); test: biochemical; format: biochemical
[3] = target: SARS-CoV-2 helicase (nsp13) (Severe acute respiratory syndrome coronavirus 2, UniProt P0DTD1); test: biochemical; format: biochemical
SARS-CoV-2 RdRp = conditions: biochemical readout; ref Yin et al., 2021; cited from earlier work
GTPase dynamin = conditions: read-out: IC50 GTPase dynamin; ref Medchemexpress, 2023; cited from earlier work
[4] = read-out: DTT Helicase unwinding inhibition [%] 2.5 µM triplicates
[5] = read-out: Helicase Inhibition [%] 20 µM (PS Inhibition Helicase [%])

| Compound | change of RdRp IC50 with increasing ATP concentration [1] | change of RdRp IC50 with increasing oligo-U concentration [1] | IC50 [1] [µM] | Helicase Tm °C 20 µM (SARS-CoV-2 helicase) [°C] | Helicase Tm °C 100 µM (SARS-CoV-2 helicase) [°C] | effect on helicase Tm (SARS-CoV-2 helicase) | RdRp Tm °C 20 µM (RdRp complex) [°C] | RdRp Tm °C 100 µM (RdRp complex) [°C] | effect on RdRp melting temperature (RdRp complex) | DTT Helicase ATPase activity PLUS DNA substrate 2 µM [2] | DTT Helicase ATPase activity [%] 2 µM [2] [%] | DTT nsp13 inhibition [%] 20 µM (DTT HC Helicase inhibition [%]) [3] [%] | IC50 ([3]; DTT Helicase IC50 [µM]) [µM] | inhibition at 2.5 µM [3, 4] [%] | inhibition at 20 µM [3, 5] [%] | inhibition at 20 µM [1] [%] | PicoGreen effect [%] 20 µM (annealed dsDNA substrate) [%] | further results |
| --- | --- | --- | --- | --- | --- | --- | --- | --- | --- | --- | --- | --- | --- | --- | --- | --- | --- | --- |
| Cc1ccc(C(=O)Nc2ccc(S(=O)(=O)O)c3cc(S(=O)(=O)O)cc(S(=O)(=O)O)c23)cc1NC(=O)c1cccc(NC(=O)Nc2cccc(C(=O)Nc3cc(C(=O)Nc4ccc(S(=O)(=O)O)c5cc(S(=O)(=O)O)cc(S(=O)(=O)O)c45)ccc3C)c2)c1 [suramin hexasodium] | no changes in IC50 | no changes in IC50 | 0.24 | 36.8 | 36.5 | decrease in Tm | 44.3 | 46.6 | increase in melting temperature; also recorded: concentration-dependent protein stabilizing effect | 63.38 | 121.61 | 92.60 | 5.42 | 53.1 | 98 | – | – | RdRp Inhibition [%] 20 µM (PS Inhibition RdRp [%]) [1]: 98.49%; inhibition of helicase NTPase activity, 2 mM DTT [2]: only active in presence of dsDNA substrate; inhibition of helicase NTPase activity, absence of DTT [2]: showed inhibition in absence of DTT, independent of the presence of the dsDNA substrate; fold stronger inhibition of SARS-CoV-2 RdRp compared to Remdesivir (SARS-CoV-2 RdRp): 20 fold |
| O=C(N/N=C/c1ccc(O)c(O)c1)c1cc2ccccc2cc1O [dynasore] | did not detect any change | gain of potency in the presence of 3 µM oligo-U | 6.22 | – | – | – | 43.3 | 44.5 | concentration-dependent protein stabilizing effect | – | – | – | – | – | 7.02 | 96.1 | 6.63 | IC50 (GTPase dynamin): 15 µM; increase of Tm of RdRp (RdRp complex): about 1.5 K |
| CC1=NN(c2ccc(C)c(C)c2)C(=O)/C1=N\Nc1cccc(-c2cccc(C(=O)O)c2)c1O [eltrombopag olamine] | – | – | 4.29 | – | – | – | 41.5 | 43.6 | – | – | – | – | – | – | 3.09 | 95.2 | 21.05 | – |
| CO[C@H](C(=O)[C@@H](O)[C@@H](C)O)[C@@H]1Cc2cc3cc(O[C@H]4C[C@@H](O[C@H]5C[C@@H](O)[C@H](O)[C@@H](C)O5)[C@H](O)[C@@H](C)O4)c(C)c(O)c3c(O)c2C(=O)[C@H]1O[C@H]1C[C@@H](O[C@H]2C[C@@H](O[C@H]3C[C@](C)(O)[C@H](O)[C@@H](C)O3)[C@@H](O)[C@@H](C)O2)[C@H](O)[C@@H](C)O1 [plicamycin (mithramycin), plicamycin] | – | – | – | 38.3 | 38.9 | did not result in a Tm change | – | – | – | 133.03 | 114.66 | 98.09 | 1.35 | 72 | 95.8 | 6.39 | −3.94 | Helicase ATPase activity PLUS DNA substrate 2 µM [2]: 159.86; Helicase ATPase activity [%] 2 µM [2]: 125.71%; remaining NTPase activity [2]: 114.6%; inhibition at 20 µM ([2]; read-out: ATPase inhibition [%] 20 µM (HC Helicase ATPase inhibition [%])): 19.8%; DTT Helicase unwinding inhibition [%] 2.5 µM triplicates [3]: 71.99%; mode of helicase inhibition towards dsDNA substrate [3]: competitive mode of inhibition towards the dsDNA substrate; IC50 ([3]; Helicase IC50 [µM]): 3.57 µM; inhibition at 2.5 µM ([3]; read-out: Helicase unwinding inhibition 2.5 µM triplicates): 39% |
| O=c1c(O)c(-c2cc(O)c(O)c(O)c2)oc2cc(O)cc(O)c12 [myricetin (cannabiscetin), myricetin] | – | – | – | 38.3 | 38.8 | did not result in a Tm change | 42.7 | 43.6 | no shift in Tm | 77.50 | 62.36 | 67.25 | – | 22.1 | 100 | – | – | inhibition at 20 µM ([3]; read-out: DTT nsp13 inhibition [%] 20 µM (DTT HC Helicase inhibition [%])): > 50% |
| O=c1c(O)c(-c2ccc(O)c(O)c2)oc2cc(O)ccc12 [fisetin (fustel), fisetin] | – | – | 2.17 | – | – | – | 42.7 | 43.5 | – | – | – | – | – | – | 39.3 | 95.8 | 4.99 | – |
